Results reported in paper PMC7153937, “Imipridone Anticancer Compounds Ectopically Activate the ClpP Protease and Represent a New Scaffold for Antibiotic Development” (Genetics, 2020).

Target: T1, S. aureus ClpP (Staphylococcus aureus, UniProt Q2G036)
T1 construct: S. aureus ClpP expressed from the GAL1 promoter in S. cerevisiae
Test: yeast surrogate genetic assay: ClpP-dependent growth inhibition vs. empty vector
Format: cell-based

T1 sequence (Q2G036 whole entry): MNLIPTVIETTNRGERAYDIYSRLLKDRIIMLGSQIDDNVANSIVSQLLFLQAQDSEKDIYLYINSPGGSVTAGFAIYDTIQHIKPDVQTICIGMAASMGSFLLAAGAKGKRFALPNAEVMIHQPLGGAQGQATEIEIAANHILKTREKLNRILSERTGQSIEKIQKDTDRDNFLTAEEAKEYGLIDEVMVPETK

O=C1C2=C(CCN(Cc3ccccc3)C2)N2CCN=C2N1Cc1ccc(C(F)(F)F)cc1 [ONC212] was tested. Which IC50 did it give?
The IC50 was 5.4 µM.
